From patent publication US20110172099A1, “Imidazole and Triazole Compounds, Their Use and Agents Containing the Same” (BASF SE, priority 2008, published 2011) come the findings set out here.

The first test concerns Botrytis cinerea. Briefly: C2: gray mold on bell pepper leaves caused by Botrytis cinerea, 1 day protective application (comparison with the prior art). Type of test: in vivo. Conditions: after 5 days, untreated control 100. The method, then: The active compounds were prepared separately as a stock solution with 25 mg of active compound, which was made up to 10 ml with a mixture of acetone and/or DMSO and the emulsifier Uniperol® EL (wetting agent with emulsifying and dispersing action based on ethoxylated alkylphenols) in the volume ratio solvent/emulsifier of from 99 to 1. Subsequently, it was made up to 100 ml with water. This stock solution was diluted with the described solvent/emulsifier/water mixture to the active compound concentration indicated below. Alternatively, the active compounds were used as a commercially available ready-to-use solution and diluted with water to the active compound concentration indicated. Bell pepper seedlings were, after 2-3 leaves were well developed, sprayed to run off point with an aqueous suspension having the active compound concentration stated below. The next day, the treated plants were inoculated with a spore suspension of Botrytis cinerea in a 2% biomalt solution. The test plants were then placed in a dark acclimatized chamber at 22 to 24° C. and high atmospheric humidity. After 5 days, the extent of the fungal infection on the leaves could be determined visually in %.
Regarding `CC(C)(C)C(O)C(CCCc1ccc(Cl)cc1)n1cncn1` (stereo not shown) [reference compound], the “Infection (%) at 600 ppm C2” value came out at 70%.

For the molecule `CC(C)(C)C(O)C(CCCc1ccccc1Cl)n1cncn1` (stereo not shown) [drawing 19], the “Infection (%) at 600 ppm C2” value is reported as 7%.

Turning to `CC(C)(C)C(O)C(CCCc1ccccc1Cl)n1cncn1` (stereo not shown) [drawing 21], the “Infection (%) at 600 ppm C2” value worked out at 10%.

`CC(C)(C)C(O)C(CCCc1cccc(Cl)c1)n1cncn1` (stereo not shown): the “Infection (%) at 600 ppm C2” value was 15%.

A further test concerns Phytophthora infestans.
Experiment: not given
The class given is in vivo. The conditions noted are these: tomato, protective, after 6 days, untreated control 90.
`CC(C)(C)C(O)C(CCCc1ccc(Cl)cc1Cl)n1cncn1` (stereo not shown): the “Infection (%) at 600 ppm C1” value worked out at 7%.

Regarding `CC(Cc1ccc(Cl)cc1Cl)CC(C(O)C(C)(C)C)n1cncn1` (stereo not shown) [reference compound], the “Infection (%) at 600 ppm C1” value is 90%.

For a further test, the system named is Phakopsora pachyrhizi. Briefly: Example G2: curative activity against soybean rust caused by Phakopsora pachyrhizi (greenhouse). Type of test: in vivo. The conditions noted are these: 600 ppm; soybean seedlings, curative spray two days after inoculation, assessed after a further 10 days; untreated plants 100% infected.
`CC(Cc1cccc(Cl)c1)CC(C(O)C(C)(C)C)n1cncn1` (mixture of isomers) [I.A39a] yielded an infection of 0%.

`CC(C)(C)C(O)C(CCCc1cc(F)ccc1F)n1cncn1` (racemic) [I.A24b] returned an infection of 0%.

Take `CC(Cc1cc(F)ccc1F)CC(C(O)C(C)(C)C)n1cncn1` (mixture of isomers) [I.A26b]: the infection amounted to 0%.

Consider `CC(C)(C)C(O)C(CCCc1cccc(F)c1F)n1cncn1` (racemic) [I.A25b], for which the infection came out at 0%.

Turning to `CC(Cc1ccc(F)cc1F)CC(C(O)C(C)(C)C)n1cncn1` (mixture of isomers) [I.A30a], the infection is listed as 0%.

`CC(CCC(C(O)C(C)(C)C)n1cncn1)c1ccccc1F` (mixture of isomers) [I.A36b]: the infection was found to be 0%.

`CC(Cc1ccc(F)cc1F)CC(C(O)C(C)(C)C)n1cncn1` (stereo not shown) [I.A30b, 7-(2,4-difluorophenyl)-2,2,6-trimethyl-4-[1,2,4]triazol-1-ylheptan-3-ol]: the infection came to 0%.
